Legend:
[1] = Synergistic effect with other herbicides
[2] = Physicochemical stability test (thermal storage of technical material in ovens for 2 months); settings: for Stability at different temperatures: 25-70° C.; for Purity after thermal storage: HPLC
Procedure: Thereafter, technical materials of the two crystalline forms were placed into ovens with temperatures of 25° C., 40° C., 55° C. and 70° C. respectively and left there for 2 months for thermal storage test.

With `Cc1nn(C)cc1C(=O)Oc1c(C(=O)c2ccc(C(F)(F)F)cc2S(C)(=O)=O)c(C)nn1C` [Crystalline form C of shuangzuocaotong, 1,3-Dimethyl-1H-pyrazole-4-carboxylic acid 4-[2-methanesulfonyl-4-trifluoromethyl-benzoyl]-1,3-dimethyl-1H-pyrazol-5-yl ester] the “Synergistic effect with one or more listed herbicides” value [1] was “obvious synergistic effect”, the “Stability at different temperatures” value [2] was “good stability” and the “Crystalline form after thermal storage” value ([2]; 25° C.) was “Crystalline form C”. For the same molecule, the “Purity after thermal storage” value ([2]; 25° C.) was 96.0%, the “Crystalline form after thermal storage” value ([2]; 40° C.) was “Crystalline form C” and the “Purity after thermal storage” value ([2]; 40° C.) was 95.8%. The “Crystalline form after thermal storage” value ([2]; 55° C.) was “Crystalline form C”, the “Purity after thermal storage” value ([2]; 55° C.) was 95.7% and the “Crystalline form after thermal storage” value ([2]; 70° C.) was “Crystalline form C”. The “Purity after thermal storage” value ([2]; 70° C.) was 95.2%.

In the case of `Cc1nn(C)cc1C(=O)Oc1c(C(=O)c2ccc(C(F)(F)F)cc2S(C)(=O)=O)c(C)nn1C` [Crystalline form A of shuangzuocaotong, 1,3-Dimethyl-1H-pyrazole-4-carboxylic acid 4-[2-methanesulfonyl-4-trifluoromethyl-benzoyl]-1,3-dimethyl-1H-pyrazol-5-yl ester], the “Stability at different temperatures” value [2] is reported as “good stability”, the “Crystalline form after thermal storage” value ([2]; 25° C.) is reported as “Crystalline form A” and the “Purity after thermal storage” value ([2]; 25° C.) is reported as 96.0%. For the same molecule, the “Crystalline form after thermal storage” value ([2]; 40° C.) was “Crystalline form A”, the “Purity after thermal storage” value ([2]; 40° C.) was 95.5% and the “Crystalline form after thermal storage” value ([2]; 55° C.) was “Crystalline form A”. The “Purity after thermal storage” value ([2]; 55° C.) was 95.1%, the “Crystalline form after thermal storage” value ([2]; 70° C.) was “Crystalline form A” and the “Purity after thermal storage” value ([2]; 70° C.) was 94.2%.
